Experimental data reported in ChEMBL document CHEMBL4673355, “Thiacalixarene based quaternary ammonium salts as promising antibacterial agents” (Bioorg Med Chem, 2021).
Blank lines part the entries; values can stand above or below the compound they belong to.

Key:
Type in all cases: functional
Staphylococcus aureus [1] = assay: Antibacterial activity against Staphylococcus aureus ATCC 29213 by CLSI broth microdilution method
Pseudomonas aeruginosa [2] = assay: Antibacterial activity against Pseudomonas aeruginosa ATCC 9027 assessed as reduction in bacterial growth incubated for 24 hrs by CLSI broth microdilution method
Klebsiella pneumoniae [3] = assay: Antibacterial activity against Klebsiella pneumoniae ATCC 10031 assessed as reduction in bacterial growth incubated for 24 hrs by CLSI broth microdilution method
Escherichia coli [4] = assay: Antibacterial activity against Escherichia coli ATCC 25922 assessed as reduction in bacterial growth incubated for 24 hrs by CLSI broth microdilution method
Escherichia coli [5] = assay: Bactericidal activity against Escherichia coli ATCC 25922
Staphylococcus aureus [6] = assay: Antibacterial activity against Staphylococcus aureus ATCC 6538 incubated for 24 hrs by CLSI broth microdilution method
Staphylococcus aureus [7] = assay: Bactericidal activity against Staphylococcus aureus ATCC 29213
Klebsiella pneumoniae [8] = assay: Bactericidal activity against Klebsiella pneumoniae ATCC 1813 assessed as reduction in bacterial growth incubated for 24 hrs followed by replating on MH broth and further incubated for 24 hrs by CLSI broth microdilution method
Acinetobacter [9] = assay: Antibacterial activity against […] resistant Acinetobacter spp. clinical isolate 5 assessed as reduction in bacterial growth incubated for 24 hrs by CLSI broth microdilution method
[10] = Antibacterial activity against […] resistant Moraxella sp.829 clinical isolate assessed as reduction in bacterial growth incubated for 24 hrs by CLSI broth microdilution method; conditions: Moraxella catarrhalis
[11] = Antibacterial activity against […] resistant Moraxella sp.765 clinical isolate assessed as reduction in bacterial growth incubated for 24 hrs by CLSI broth microdilution method; conditions: Moraxella catarrhalis
Staphylococcus aureus [12] = assay: Antibacterial activity against methicillin- resistant Staphylococcus aureus 25 clinical isolate assessed as reduction in bacterial growth incubated for 24 hrs by CLSI broth microdilution method
Klebsiella pneumoniae [13] = assay: Antibacterial activity against Klebsiella pneumoniae ATCC 1813 assessed as reduction in bacterial growth incubated for 24 hrs by CLSI broth microdilution method
[14] = tested on: Staphylococcus intermedius; assay: Antibacterial activity against methicillin- resistant Staphylococcus intermedius 1143 clinical isolate assessed as reduction in bacterial growth incubated for 24 hrs by CLSI broth microdilution method
[15] = tested on: Staphylococcus haemolyticus; assay: Antibacterial activity against methicillin- resistant Staphylococcus haemolyticus 837 assessed as reduction in bacterial growth incubated for 24 hrs by CLSI broth microdilution method
Staphylococcus aureus [16] = assay: Antibacterial activity against Staphylococcus aureus ATCC 29213 assessed as reduction in bacterial growth incubated for 24 hrs by CLSI broth microdilution method
Pseudomonas = assay: Antibacterial activity against methicillin- resistant Pseudomonas spp. clinical isolate 6 assessed as reduction in bacterial growth incubated for 24 hrs by CLSI broth microdilution method
Pseudomonas aeruginosa [17] = assay: Antibacterial activity against Pseudomonas aeruginosa ATCC 27853 assessed as reduction in bacterial growth incubated for 24 hrs by CLSI broth microdilution method; conditions: Pseudomonas aeruginosa, ATCC 27853, 24 h, read-out: MIC
Proteus sp. = assay: Antibacterial activity against […] resistant Proteus sp. clinical isolate 17 assessed as reduction in bacterial growth incubated for 24 hrs by CLSI broth microdilution method; conditions: Proteus sp. (in: enterobacteria)
[18] = tested on: Staphylococcus epidermidis; assay: Bactericidal activity against Staphylococcus epidermidis assessed as reduction in bacterial growth incubated for 24 hrs followed by replating on MH broth and further incubated for 24 hrs by CLSI broth microdilution method
Klebsiella sp. [19] = assay: Antibacterial activity against […] resistant Klebsiella sp. clinical isolate 11 assessed as reduction in bacterial growth incubated for 24 hrs by CLSI broth microdilution method
[20] = tested on: Staphylococcus epidermidis; assay: Antibacterial activity against Staphylococcus epidermidis assessed as reduction in bacterial growth incubated for 24 hrs by CLSI broth microdilution method
Acinetobacter [21] = assay: Antibacterial activity against […] resistant Acinetobacter spp. clinical isolate 3 assessed as reduction in bacterial growth incubated for 24 hrs by CLSI broth microdilution method
Klebsiella sp. [22] = assay: Antibacterial activity against […] resistant Klebsiella sp. clinical isolate 12 assessed as reduction in bacterial growth incubated for 24 hrs by CLSI broth microdilution method
Acinetobacter [23] = assay: Antibacterial activity against […] resistant Acinetobacter spp. clinical isolate 1 assessed as reduction in bacterial growth incubated for 24 hrs by CLSI broth microdilution method
Staphylococcus aureus [24] = assay: Antibacterial activity against methicillin- resistant Staphylococcus aureus 2020 clinical isolate assessed as reduction in bacterial growth incubated for 24 hrs by CLSI broth microdilution method
[25] = Antibacterial activity against […] resistant Moraxella sp.764 clinical isolate assessed as reduction in bacterial growth incubated for 24 hrs by CLSI broth microdilution method; conditions: Moraxella catarrhalis
Staphylococcus aureus [26] = assay: Antibacterial activity against methicillin- resistant Staphylococcus aureus 967 clinical isolate assessed as reduction in bacterial growth incubated for 24 hrs by CLSI broth microdilution method
Escherichia coli [27] = assay: Bactericidal activity against Escherichia coli ATCC 25922 assessed as reduction in bacterial growth incubated for 24 hrs followed by replating on MH broth and further incubated for 24 hrs by CLSI broth microdilution method
Staphylococcus aureus [28] = assay: Antibacterial activity against methicillin- resistant Staphylococcus aureus 983 clinical isolate assessed as reduction in bacterial growth incubated for 24 hrs by CLSI broth microdilution method
Staphylococcus aureus [29] = assay: Bactericidal activity against Staphylococcus aureus ATCC 29213 assessed as reduction in bacterial growth incubated for 24 hrs followed by replating on MH broth and further incubated for 24 hrs by CLSI broth microdilution method; conditions: time 48 hrs
[30] = Escherichia coli, ATCC 25922, 24 h, read-out: MIC

- MIC (Staphylococcus aureus [1]): 16 µg/mL
- MIC (Pseudomonas aeruginosa [2]): 1000 µg/mL
- MIC (Klebsiella pneumoniae [3]): 100 µg/mL
- MIC (Escherichia coli [4]; [30]): 32 µg/mL
- MIC (Staphylococcus aureus [6]): ≤ 10 µg/mL
Compound: CCCOc1c2cc(C[N+](C)(C)CCO)cc1Cc1cc(C[N+](C)(C)CCO)cc(c1OCCC)Cc1cc(C[N+](C)(C)CCO)cc(c1OCCC)Cc1cc(C[N+](C)(C)CCO)cc(c1OCCC)C2.[Cl-].[Cl-].[Cl-].[Cl-]
- MBC (Escherichia coli [5]): 256 µg/mL
- MBC (Staphylococcus aureus [7]): 16 µg/mL

- MIC (Staphylococcus aureus [1]): 16 µg/mL
- MIC (Escherichia coli [4]; [30]): 16 µg/mL
Compound: CCCOc1c2cc(C[N+](C)(C)C)cc1Cc1cc(C[N+](C)(C)C)cc(c1OCCC)Cc1cc(C[N+](C)(C)C)cc(c1OCCC)Cc1cc(C[N+](C)(C)C)cc(c1OCCC)C2.[Cl-].[Cl-].[Cl-].[Cl-]
- MBC (Escherichia coli [5]): 16 µg/mL
- MBC (Staphylococcus aureus [7]): 16 µg/mL

Compound: CC(C)(C)c1cc2c(OCC(=O)NCCC[N+](C)(C)Cc3ccccc3)c(c1)Sc1cc(C(C)(C)C)cc(c1OCC(=O)NCCC[N+](C)(C)Cc1ccccc1)Sc1cc(C(C)(C)C)cc(c1OCC(=O)NCCC[N+](C)(C)Cc1ccccc1)Sc1cc(C(C)(C)C)cc(c1OCC(=O)NCCC[N+](C)(C)Cc1ccccc1)S2.[Cl-].[Cl-].[Cl-].[Cl-]
- MBC (Klebsiella pneumoniae [8]): 32 µg/mL
- MIC (Acinetobacter [9]): 64 µg/mL
- MIC [10]: 64 µg/mL
- MIC [11]: 64 µg/mL
- MIC (Staphylococcus aureus [12]): 16 µg/mL
- MIC (Klebsiella pneumoniae [13]; 24 h): >64 µg/mL
- MIC (Klebsiella pneumoniae [13]; Klebsiella pneumoniae, ATCC 1813, 24 h, read-out: MIC): 32 µg/mL
- MIC [14]: 16 µg/mL
- MIC [15]: 64 µg/mL
- MIC (Staphylococcus aureus [16]): 4 µg/mL
- MIC (Staphylococcus aureus [16]; Staphylococcus aureus, ATCC 29213, 24 h, read-out: MIC): 4 µg/mL
- MIC (Pseudomonas): 64 µg/mL
- MIC (Pseudomonas aeruginosa [17]): > 64 µg/mL
- MIC (Proteus sp.): > 64 µg/mL
- MBC [18]: 16 µg/mL
- MBC ([18]; Staphylococcus epidermidis, read-out: MBC): 32 µg/mL
- MIC (Escherichia coli [4]; 24 h): 32 µg/mL
- MIC (Escherichia coli [4]; [30]): > 64 µg/mL
- MIC (Klebsiella sp. [19]): > 64 µg/mL
- MIC [20]: 2 µg/mL
- MIC ([20]; Staphylococcus epidermidis, read-out: MIC): 4 µg/mL
- MIC (Acinetobacter [21]): 64 µg/mL
- MIC (Klebsiella sp. [22]): 64 µg/mL
- MIC (Acinetobacter [23]): 64 µg/mL
- MIC (Staphylococcus aureus [24]): 64 µg/mL
- MIC [25]: 64 µg/mL
- MIC (Staphylococcus aureus [26]): 64 µg/mL
- MBC (Escherichia coli [27]): 64 µg/mL
- MIC (Staphylococcus aureus [28]): 64 µg/mL
- MBC (Staphylococcus aureus [29]; Staphylococcus aureus, ATCC 29213, read-out: MBC): 64 µg/mL
- MBC (Staphylococcus aureus [29]): 64 µg/mL

- MIC (Pseudomonas aeruginosa [2]): 50 µg/mL
- MIC (Klebsiella pneumoniae [3]): 500 µg/mL
- MIC (Escherichia coli [4]; [30]): 500 µg/mL
- MIC (Staphylococcus aureus [6]): ≤ 10 µg/mL
Compound: CCCOc1c2cc(C[N+](C)(C)CCN)cc1Cc1cc(C[N+](C)(C)CCN)cc(c1OCCC)Cc1cc(C[N+](C)(C)CCN)cc(c1OCCC)Cc1cc(C[N+](C)(C)CCN)cc(c1OCCC)C2.[Cl-].[Cl-].[Cl-].[Cl-]

- MIC (Pseudomonas aeruginosa [2]): 500 µg/mL
- MIC (Klebsiella pneumoniae [3]): > 1000 µg/mL
- MIC (Escherichia coli [4]; [30]): 1000 µg/mL
- MIC (Staphylococcus aureus [6]): > 1000 µg/mL
Compound: CCCCCCCCOc1c2cc(C[n+]3ccn(C)c3)cc1Cc1cc(C[n+]3ccn(C)c3)cc(c1OCCCCCCCC)Cc1cc(C[n+]3ccn(C)c3)cc(c1OCCCCCCCC)Cc1cc(C[n+]3ccn(C)c3)cc(c1OCCCCCCCC)C2.[Cl-].[Cl-].[Cl-].[Cl-]
